The values below come from patent US6534546B1 (Chugai Seiyaku Kabushiki Kaisha, priority 1994, dated 2003).

SMILES strings stand for the structures. Where a name gives a salt, the structure may show the parent alone. Read-outs that look alike come from different tables or passages of the source.

For test [1], the target named is T1, E-cNOS (Type 3) (Bos taurus, UniProt P29473).
T1 construct: the resulting supernatant was used as the crude enzyme sample of E-cNOS; endogenous in cells; host or cells: CPAE (cow pulmonary arterial endothelium cells), 1% Triton X-100 extract, 100,000 x g supernatant
T1 sequence (P29473 2-1205): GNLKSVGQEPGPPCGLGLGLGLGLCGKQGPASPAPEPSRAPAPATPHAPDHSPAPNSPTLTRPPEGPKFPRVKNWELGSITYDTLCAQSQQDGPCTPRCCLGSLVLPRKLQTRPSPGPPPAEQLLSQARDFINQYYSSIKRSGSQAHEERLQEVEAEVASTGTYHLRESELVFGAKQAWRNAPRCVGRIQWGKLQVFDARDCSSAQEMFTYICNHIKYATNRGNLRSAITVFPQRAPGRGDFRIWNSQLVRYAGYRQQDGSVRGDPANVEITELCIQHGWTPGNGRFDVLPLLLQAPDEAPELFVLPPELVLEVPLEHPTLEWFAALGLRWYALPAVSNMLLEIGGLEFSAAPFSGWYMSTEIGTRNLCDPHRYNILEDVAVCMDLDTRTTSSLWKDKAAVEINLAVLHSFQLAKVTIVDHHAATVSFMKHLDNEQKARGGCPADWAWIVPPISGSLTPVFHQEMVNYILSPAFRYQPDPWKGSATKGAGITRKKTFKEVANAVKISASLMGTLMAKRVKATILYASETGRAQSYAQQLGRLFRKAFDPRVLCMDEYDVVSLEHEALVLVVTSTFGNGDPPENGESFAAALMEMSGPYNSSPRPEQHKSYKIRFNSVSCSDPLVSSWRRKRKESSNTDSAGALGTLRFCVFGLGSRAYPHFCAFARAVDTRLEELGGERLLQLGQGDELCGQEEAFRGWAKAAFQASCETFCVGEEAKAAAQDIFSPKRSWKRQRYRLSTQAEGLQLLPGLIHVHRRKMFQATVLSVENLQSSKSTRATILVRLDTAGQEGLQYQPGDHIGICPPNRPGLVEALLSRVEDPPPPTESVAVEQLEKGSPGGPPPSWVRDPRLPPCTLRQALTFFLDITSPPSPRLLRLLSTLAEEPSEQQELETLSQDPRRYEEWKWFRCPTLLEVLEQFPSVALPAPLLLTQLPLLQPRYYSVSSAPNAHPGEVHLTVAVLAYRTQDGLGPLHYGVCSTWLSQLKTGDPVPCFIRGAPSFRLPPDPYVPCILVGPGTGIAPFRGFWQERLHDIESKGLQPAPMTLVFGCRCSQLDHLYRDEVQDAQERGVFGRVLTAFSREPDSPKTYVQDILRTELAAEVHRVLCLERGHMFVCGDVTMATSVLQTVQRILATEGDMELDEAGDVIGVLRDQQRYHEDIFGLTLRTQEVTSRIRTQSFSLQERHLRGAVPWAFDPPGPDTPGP
Put plainly: biochemical.
Description: The crude enzyme sample of E-cNOS was prepared by the following procedure. A cow pulmonary arterial endothielium cell (CPAE) was cultured in a MEM medium containing 20% FBS. […] A suitable amount of Ca- and Mg-free phosphate buffer (pH 7.4) was added to the precipitating cells and they were centrifuged at 1,000 rpm for 10 min. The same step was repeated to wash the cells which, upon addition of 50 mM Tris-HCl (pH 7.4) containing 1% Triton X-100 and 1 mM DTT, were left to stand in ice for 1 h. Subsequently, the mixture was homogenized for 3 min and kept in ice for 30 min with occasional stirring. Finally, the mixture was centrifuged at 100,000×g for 60 min and the resulting supernatant was used as the crude enzyme sample of E-cNOS.
The reaction was started by addition of L-[^3H]arginine and following incubation at 37° C. for 10 min, the reaction was terminated by addition of 2 ml of 50 mM Tris-HCl (pH 5.5) containing 1 mM EDTA and placing the mixture on ice. The reaction solution was passed through a cation-exchange resin column (Dowex AG50WX-8, Na^+ form, 3.2 ml) to separate the reaction product L-[^3H]citrulline from the unreacted residual substrate L-[^3H]arginine. The eluate was combined with another eluate resulting from the passage of a given amount of distilled water through the column and put into a minivial for recovery of L-[^3H]citrulline. Thereafter, a scintillation fluid was added and the contained radioactivity was measured with a liquid scintillation counter to determine the amount of L-[^3H]citrulline.
The activity of N-cNOS or E-cNOS was determined by subtracting the activity as detected in the absence of CaCl2 and calmodulin from the activity as detected in the presence of CaCl2 and calmodulin. […] The protein concentration of each crude enzyme sample was determined with a micro-assay kit of Biorad Co. Each experiment was conducted in a duplicate.

Test [2] concerns the target iNOS (Type 2) (Rattus norvegicus, UniProt Q06518). Description: biochemical. It counts as biochemical.
The mark [3] stands for this setting: mean of one to four independent experiments, crude enzyme, 100 nM L-[3H]arginine, read-out: IC50 value, E-cNOS (Type 3).
[4] abbreviates: conclusion from Tables 49, 50 and 51.
Setting [5] is: mean of one to four independent experiments, crude enzyme, 100 nM L-[3H]arginine, without CaCl2 and calmodulin, read-out: IC50 value, iNOS (Type 2).
The mark [6] stands for this setting: mean of one to four independent experiments, LPS-treated rat lung crude enzyme, read-out: IC50 value, iNOS (Type 2).

Chain of iNOS (Type 2) (Q06518 whole entry, looked up): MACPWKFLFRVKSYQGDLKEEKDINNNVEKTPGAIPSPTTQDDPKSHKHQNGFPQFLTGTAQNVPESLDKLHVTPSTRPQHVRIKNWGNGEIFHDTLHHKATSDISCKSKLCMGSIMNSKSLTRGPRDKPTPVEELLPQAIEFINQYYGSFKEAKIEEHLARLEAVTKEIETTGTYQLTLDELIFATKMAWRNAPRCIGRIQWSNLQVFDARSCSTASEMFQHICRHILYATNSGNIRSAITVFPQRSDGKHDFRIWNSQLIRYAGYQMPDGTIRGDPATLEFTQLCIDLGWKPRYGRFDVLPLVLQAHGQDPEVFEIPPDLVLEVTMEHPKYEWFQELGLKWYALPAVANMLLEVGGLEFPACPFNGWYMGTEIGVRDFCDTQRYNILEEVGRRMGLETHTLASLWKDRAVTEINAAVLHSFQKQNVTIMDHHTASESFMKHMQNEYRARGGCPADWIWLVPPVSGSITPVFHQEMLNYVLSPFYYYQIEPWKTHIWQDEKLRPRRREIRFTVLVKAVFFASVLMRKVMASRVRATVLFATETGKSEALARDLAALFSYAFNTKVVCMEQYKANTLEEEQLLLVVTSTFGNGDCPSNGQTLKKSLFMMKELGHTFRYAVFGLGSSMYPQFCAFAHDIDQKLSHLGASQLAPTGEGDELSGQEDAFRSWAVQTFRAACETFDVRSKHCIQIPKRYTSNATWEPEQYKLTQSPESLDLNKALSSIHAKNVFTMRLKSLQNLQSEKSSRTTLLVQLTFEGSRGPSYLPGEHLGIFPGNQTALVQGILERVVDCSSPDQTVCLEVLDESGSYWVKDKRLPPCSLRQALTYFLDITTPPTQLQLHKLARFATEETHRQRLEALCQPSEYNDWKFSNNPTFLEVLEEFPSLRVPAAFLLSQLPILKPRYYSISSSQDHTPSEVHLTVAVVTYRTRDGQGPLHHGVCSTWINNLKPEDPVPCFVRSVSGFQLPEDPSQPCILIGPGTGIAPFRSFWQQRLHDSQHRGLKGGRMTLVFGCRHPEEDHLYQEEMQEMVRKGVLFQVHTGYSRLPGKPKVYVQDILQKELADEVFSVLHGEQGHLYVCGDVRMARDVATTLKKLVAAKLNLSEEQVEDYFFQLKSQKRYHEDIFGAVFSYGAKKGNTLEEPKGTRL

For orientation: IC50 means the concentration at which inhibition is half-maximal. As to `CCSC(=N)Nc1cccc(CN)c1C.Cl.Cl` [Example 131, N-(3-(S-ethylisothioureido)-2-methylphenylmethyl)amine dihydrochloride], in test [1] (setting [3]), the IC50 is 481 nM. In addition, in test [2], the “Ratio of IC50 values E-cNOS/iNOS” value is reported as 6.2 and the “selectivity for iNOS compared to E-cNOS, compared with the existing NOS inhibitors (L-NIO)” value was “more selective inhibitory effect on iNOS than L-NIO”. Moreover, in test [2] (setting [4]), the “iNOS inhibitory potency compared with the existing NOS inhibitors (L-MIN)” value is “more potent in inhibiting iNOS than L-MIN”. Further, the 50% inhibitory concentration (IC50) in test [2] (setting [5]) amounted to 0.0782 µM.

Regarding `CSC(=N)Nc1cccc(C(C)N)c1.Cl.Cl` (stereo not shown) [Example 12, N-(1-(3-(S-methylisothioureido)phenyl)ethyl)amine dihydrochloride], the half-maximal inhibitory concentration (IC50) was 538 nM in test [1] (setting [3]) and 0.239 µM in test [2] (setting [5]). Also, the “Ratio of IC50 values E-cNOS/iNOS” value in test [2] came out at 2.3. Also, the “iNOS inhibitory potency compared with the existing NOS inhibitors (L-MIN)” value in test [2] (setting [4]) is given as “more potent in inhibiting iNOS than L-MIN”.

For the compound `CC(C)(N)c1cccc(NC(N)=N[N+](=O)[O-])c1.Cl` [Example 7, N-(1-methyl-1-(3-(N′-nitroguanidino)phenyl)ethyl)amine hydrochloride], the IC50 in test [1] (setting [3]) was 42.4 nM; in test [2] (setting [5]) it was 2.12 µM. Also, in test [2], the “Ratio of IC50 values E-cNOS/iNOS” value was determined as 0.02.

For `N/N=C(\N)NCCC[C@H](N)C(=O)O` [L-AA, N^G-amino-L-arginine, reference compound], the IC50 in test [1] stood at 167 nM; in test [2] it was 1.28 µM.

With `CCSC(=N)Nc1ccc(OC)c(CN)c1` [Example 122, N-(5-(S-ethylisothioureido)-2-methoxyphenylmethyl)amine dihydrochloride], the 50% inhibitory concentration (IC50) in test [1] (setting [3]) turned out to be 3530 nM; in test [2] (setting [5]), 24.6 µM.

Take `CCSC(=N)Nc1ccc(OCc2ccccc2)c(CN)c1.Cl.Cl` [Example 337, N-(2-benzyloxy-5-(S-ethylisothioureido)phenylmethyl)amine dihydrochloride]: the half-maximal inhibitory concentration (IC50) in test [1] (setting [3]) is 5200 nM. Further, the “Ratio of IC50 values E-cNOS/iNOS” value in test [2] (index of selectivity) is 0.3.

As to `CN(C)Cc1cccc(NC(N)=N[N+](=O)[O-])c1` [Example 39, N-(3-(N′-nitroguanidino)phenylmethyl)dimethylamine acetate], the IC50 in test [2] (setting [5]) is 22.9 µM.

`CCSC(=N)Nc1ccc(CCN)cc1.Cl.Cl` [Example 104, N-(4-(S-ethylisothioureido)phenylethyl)amine dihydrochloride]: the concentration for half-maximal inhibition (IC50) in test [1] (setting [3]) amounted to 118 nM; in test [2] (setting [5]) it was 0.0865 µM. In addition, in test [2] (setting [4]), the “iNOS inhibitory potency compared with the existing NOS inhibitors (L-MIN)” value was “more potent in inhibiting iNOS than L-MIN”. Also, the “Ratio of IC50 values E-cNOS/iNOS” value in test [2] (index of selectivity) is 1.4.

For the compound `CCSC(=N)Nc1ccc(NC)c(CN)c1.Cl.Cl.Cl` [Example 452, N-(5-(S-ethylisothioureido)-2-methylaminophenylmethyl)amine trihydrochloride], the figures for the IC50 in test [1] (setting [3]) and in test [2] (setting [5]) were 3630 nM and 6.96 µM, respectively. Further, the “Ratio of IC50 values E-cNOS/iNOS” value in test [2] is listed as 0.5.

Regarding `CSC(=N)Nc1cccc(CN)c1.Cl.Cl` [Example 26, N-(3-(S-methylisothioureido)phenylmethyl)amine dihydrochloride], the half-maximal inhibitory concentration (IC50) in test [1] (setting [3]) worked out at 431 nM; in test [2] (setting [5]), 1.35 µM. Also, in test [2] (index of selectivity), the “Ratio of IC50 values E-cNOS/iNOS” value is 0.3.

As to `CCSC(=N)Nc1ccc(N(C)C)c(CN)c1.Cl.Cl.Cl` [Example 270, N-(2-dimethylamino-5-(S-ethylisothioureido)phenylmethyl)amine trihydrochloride], the 50% inhibitory concentration (IC50) in test [1] (setting [3]) turned out to be 3590 nM; in test [2] (setting [5]), 4.53 µM. Further, the “Ratio of IC50 values E-cNOS/iNOS” value in test [2] (index of selectivity) was found to be 0.8.

For `CCSC(=N)Nc1ccc(OC)c(C(C)(C)N)c1` [Example 350, N-(1-(5-(S-ethylisothioureido)-2-methoxyphenyl)-1-methylethyl)amine], the values for the IC50 in test [1] (setting [3]) and in test [2] (setting [5]) were 15800 nM and 58.4 µM, respectively. Moreover, the “Ratio of IC50 values E-cNOS/iNOS” value in test [2] (index of selectivity) is recorded as 0.3.

With `N=C(Nc1cccc(CN)c1)N[N+](=O)[O-]` [Example 34, N-(3-(N′-nitroguanidino)phenylmethyl)amine], the 50% inhibitory concentration (IC50) in test [2] (setting [6]) worked out at 6.76 µM.

Regarding `CC(=N)NCCC[C@H](N)C(=O)O` [L-NIO, NG-iminoethyl-L-ornithine, reference compound], the IC50 in test [1] (mean of one to four independent experiments, CPAE cell crude enzyme, read-out: IC50 value, E-cNOS (Type 3)) was 1230 nM; in test [2] (setting [6]), 0.458 µM.

Regarding `CCSC(N)=NCCC[C@H](N)C(=O)O` [L-EIN, S-ethyl-L-thiocitrulline, reference compound], the IC50 came to 732 nM in test [1] (setting [3]) and 6.76 µM in test [2] (setting [5]).

On to `CCC(N)c1cccc(NC(N)=N[N+](=O)[O-])c1` (stereo not shown) [Example 21, N-(1-(3-(N′-nitroguanidino)phenyl)propyl)amine hydrochloride], for which the 50% inhibitory concentration (IC50) in test [2] (setting [5]) was 2.61 µM.

`CSC(=N)Nc1ccc(CCN)cc1.Cl.Cl` [Example 52, N-(4-(S-methylisothioureido)phenylethyl)amine dihydrochloride]: the IC50 in test [1] (setting [3]) was 483 nM; in test [2] (setting [5]) it was 2.76 µM. For the same compound, the “Ratio of IC50 values E-cNOS/iNOS” value in test [2] (index of selectivity) is listed as 0.2.

As to `CNC(=N)NCCC[C@H](N)C(=O)O` [L-NMMA, N^G-monomethyl-L-arginine, reference compound], in test [2] (read-out: IC50 value, iNOS (Type 2)), the half-inhibitory concentration (IC50) came to 3.48 µM.

With `CCN=C(N)Nc1ccc(N(C)C)c(CN)c1.Cl.Cl.Cl` [Example 267, N-(2-dimethylamino-5-(N′-ethylguanidino)phenylmethyl)amine trihydrochloride], the IC50 in test [1] (setting [3]) was found to be 50100 nM; in test [2] (setting [5]), 4.79 µM. The “selectivity for iNOS compared to E-cNOS, compared with the existing NOS inhibitors (L-NIO)” value in test [2] (setting [4]) is “more selective inhibitory effect on iNOS than L-NIO”. Moreover, in test [2] (index of selectivity), the “Ratio of IC50 values E-cNOS/iNOS” value is given as 10.5.

`CCOc1ccc(NC(=N)SCC)cc1CN.Cl.Cl` [Example 324, N-(2-ethoxy-5-(S-ethylisothioureido)phenylmethyl) amine dihydrochloride]: the 50% inhibitory concentration (IC50) is 2310 nM in test [1] (setting [3]) and 8.73 µM in test [2] (setting [5]). For the same compound, the “Ratio of IC50 values E-cNOS/iNOS” value in test [2] (index of selectivity) was determined as 0.3.

Take `CCN=C(N)Nc1cccc(CN)c1Cl.Cl.Cl` [Example 538, N-(2-chloro-3-(N′-ethylguanidino)phenylmethyl)amine dihydrochloride]: the 50% inhibitory concentration (IC50) in test [1] (setting [3]) was 2540 nM. In test [2], the “Ratio of IC50 values E-cNOS/iNOS” value came out at 8.3 and the “selectivity for iNOS compared to E-cNOS, compared with the existing NOS inhibitors (L-NIO)” value is recorded as “more selective inhibitory effect on iNOS than L-NIO”. Further, the half-maximal inhibitory concentration (IC50) in test [2] (setting [5]) was found to be 0.306 µM.

Consider `CSC(=N)Nc1cccc(CCN)c1` [Example 60, N-(3-(S-methylisothioureido)phenylethyl)amine dihydrochloride], for which the IC50 in test [2] (setting [5]) is 6.75 µM.

Turning to `CC(N)c1cccc(NC(N)=N[N+](=O)[O-])c1` (stereo not shown) [Example 14, N-(1-(3-(N′-nitroguanidino)phenyl)ethyl)amine hydrochloride], the IC50 in test [2] (setting [5]) is 3.68 µM.

As for `CSC(=N)Nc1cccc(C(C)(C)N)c1.Cl.Cl` [Example 5, N-(1-methyl-1-(3-(S-methylisothioureido)phenyl)ethyl)amine dihydrochloride], the half-maximal inhibitory concentration (IC50) in test [1] (setting [3]) is 429 nM; in test [2] (setting [5]), 0.449 µM. The “Ratio of IC50 values E-cNOS/iNOS” value in test [2] (index of selectivity) stood at 1.0.
